Laboratory results published in PubChem BioAssay (NCI).
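GI50 = concentration required for 50% inhibition of growth. At the TGI there is no net growth.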

How the values were obtained:
Assay in all cases: growth of human tumour cells (NCI), 384-well format
MCF7 breast = test system: MCF7 breast
NCI-H23 lung = test system: NCI-H23 lung
SF-295 CNS = test system: SF-295 CNS
NCI/ADR-RES ovarian = test system: NCI/ADR-RES ovarian
SF-268 CNS = test system: SF-268 CNS
OVCAR-5 ovarian = test system: OVCAR-5 ovarian
MDA-MB-435 melanoma = test system: MDA-MB-435 melanoma
UO-31 renal = test system: UO-31 renal
HOP-92 NSCLC = test system: HOP-92 NSCLC
HS 578T breast = test system: HS 578T breast
SK-MEL-2 melanoma = test system: SK-MEL-2 melanoma
SNB-19 CNS = test system: SNB-19 CNS
MOLT-4 leukemia = test system: MOLT-4 leukemia

`C=CC(=O)Nc1cc(C)ccc1Nc1nc(Nc2cc(OC)ncc2C)ncc1C(F)(F)F` was tested, and the GI50 (MCF7 breast) was 690 nM, the TGI (MCF7 breast) was 4.13 µM and the GI50 (NCI-H23 lung) was 192 nM. It also gave a TGI (NCI-H23 lung) of 661 nM, a GI50 (SF-295 CNS) of 3.61 µM and a TGI (SF-295 CNS) of over 100 µM. For the same compound, the GI50 (NCI/ADR-RES ovarian) was 1030 nM, the TGI (NCI/ADR-RES ovarian) was 2590 nM and the GI50 (SF-268 CNS) was 1500 nM. It also gave a TGI (SF-268 CNS) of 5.94 µM, a GI50 (OVCAR-5 ovarian) of 279 nM and a TGI (OVCAR-5 ovarian) of 1500 nM. For the same compound, the GI50 (MDA-MB-435 melanoma) was 253 nM, the TGI (MDA-MB-435 melanoma) was 1510 nM and the GI50 (UO-31 renal) was 394 nM. It also gave a TGI (UO-31 renal) of 2880 nM, a GI50 (HOP-92 NSCLC) of 282 nM and a TGI (HOP-92 NSCLC) of 700 nM. It also gave a GI50 (HS 578T breast) of 429 nM, a TGI (HS 578T breast) of 1850 nM and a GI50 (SK-MEL-2 melanoma) of 113 nM. It also gave a TGI (SK-MEL-2 melanoma) of 271 nM, a GI50 (SNB-19 CNS) of 786 nM and a TGI (SNB-19 CNS) of 3.43 µM. It also gave a GI50 (MOLT-4 leukemia) of 879 nM and a TGI (MOLT-4 leukemia) of 2150 nM.
